From patent US20260364080A1, “PYRAZOLO-PYRIMIDINONE COMPOUNDS FOR USE IN METHODS OF INHIBITING WEE1 A KINASE” (Acrivon Therapeutics, Inc., priority 2023, published 2026)

What was measured:
[1] = target: T1, Myt1 kinase (recombinant PMYT-1) (Homo sapiens, UniProt Q99640); assay: Myt1 kinase binding assay (LanthaScreen Eu Kinase Binding Assay); details: 3 nM tracer 178, 2.5 nM PMYT-1, 1 nM Eu-labeled antibody; read-out: Myt1 kinase Binding IC50
T1 construct: full length PMYT-1 was expressed by baculovirus in insect cells; purchased Invitrogen A30984; host or cells: insect cells (baculovirus)
T1 sequence (Q99640 1-499): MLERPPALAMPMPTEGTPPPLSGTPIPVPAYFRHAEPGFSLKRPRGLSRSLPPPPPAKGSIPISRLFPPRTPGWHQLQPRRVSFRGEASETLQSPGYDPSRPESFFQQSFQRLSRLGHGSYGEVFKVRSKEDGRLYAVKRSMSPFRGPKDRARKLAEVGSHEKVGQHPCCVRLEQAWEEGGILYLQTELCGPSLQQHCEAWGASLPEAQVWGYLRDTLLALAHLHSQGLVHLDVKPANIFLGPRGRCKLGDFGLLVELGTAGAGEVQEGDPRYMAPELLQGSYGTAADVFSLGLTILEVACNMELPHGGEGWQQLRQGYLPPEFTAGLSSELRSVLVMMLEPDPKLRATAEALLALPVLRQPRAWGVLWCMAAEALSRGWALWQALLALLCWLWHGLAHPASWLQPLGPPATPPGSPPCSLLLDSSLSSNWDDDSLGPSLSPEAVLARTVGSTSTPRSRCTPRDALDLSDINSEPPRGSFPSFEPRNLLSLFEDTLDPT
Procedure, shortened: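 Compound binding to Myt1 kinase was assessed using the LanthaScreen Eu Kinase Binding Assay. This europium-based binding format was applied to quantify how strongly each compound bound to the Myt1 enzyme, and the binding affinity was reported for each compound as an IC50 value.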

[2] = target: T2, Wee1A kinase (CDK1 Tyr15 phosphorylation in ACHN renal cell carcinoma cells) (Homo sapiens, UniProt P30291); assay: High-content imaging of pCdk1 Y15, Wee1A kinase target engagement in ACHN cells; assay type: cell-based; details: 4 h treatment, nuclear positivity for pCdk1 Y15 vs DMSO control, read-out: CDK1 Tyr15 Phosphorylation EC50
T2 construct: pCDK1 Tyr15 immunofluorescence read-out
T2 sequence (P30291 whole entry): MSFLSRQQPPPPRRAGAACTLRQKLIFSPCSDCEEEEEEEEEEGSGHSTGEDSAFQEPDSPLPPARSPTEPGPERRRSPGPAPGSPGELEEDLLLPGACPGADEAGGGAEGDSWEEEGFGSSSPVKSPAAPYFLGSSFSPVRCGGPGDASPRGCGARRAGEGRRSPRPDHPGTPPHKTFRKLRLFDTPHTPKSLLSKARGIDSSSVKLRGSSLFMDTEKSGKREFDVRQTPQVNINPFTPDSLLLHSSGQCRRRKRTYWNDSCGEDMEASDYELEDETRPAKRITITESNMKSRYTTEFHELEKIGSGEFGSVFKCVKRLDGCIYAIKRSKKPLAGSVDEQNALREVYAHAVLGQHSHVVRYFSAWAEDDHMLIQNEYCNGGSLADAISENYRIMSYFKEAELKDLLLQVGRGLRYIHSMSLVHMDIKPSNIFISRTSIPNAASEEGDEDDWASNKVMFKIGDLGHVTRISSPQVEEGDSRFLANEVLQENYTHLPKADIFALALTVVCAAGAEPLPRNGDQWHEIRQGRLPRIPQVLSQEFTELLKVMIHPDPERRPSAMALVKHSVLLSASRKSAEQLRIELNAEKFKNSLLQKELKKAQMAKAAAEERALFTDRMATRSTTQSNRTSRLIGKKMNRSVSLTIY
Procedure, shortened: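 EC50 values come from the per-well fraction of cells with nuclear pCdk1 Y15 staining, normalised to DMSO control, by automated immunofluorescence imaging. Cells were ACHN renal carcinoma, treated 4 h with compound at 7–5,000 nM or 0.3–200 nM.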

ACHN cells = assay: Cell Titer Glo viability assay, ACHN cells; assay type: cell-based; details: Homo sapiens, 144 h, absolute EC50
Procedure, shortened: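 Cells grown in MEM with 10% FCS were seeded at 500 (A427), 400 (ACHN) or 250 (DAOY) per well and treated the next day with compound at 17 to 10 000 nM. Viability relative to untreated control was read at 144 h by CellTiter-Glo 2.0.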

[3] = target: T3, Myt1 kinase (CDK1 Thr14 phosphorylation in ACHN renal cell carcinoma cells) (Homo sapiens, UniProt Q99640); assay: AlphaLISA assay, Myt1 kinase target engagement (phospho-CDK1 Thr14) in ACHN cells; assay type: cell-based; details: ACHN cells (marked *); 4 h treatment
T3 construct: pCDK1 Thr14 AlphaLISA read-out
T3 sequence (Q99640 1-499): T1 sequence (Q99640 1-499)
Procedure: Each of an ACHN renal cell carcinoma cell line (ATCC) and a DAOY medulloblastoma cell line, and an A427 lung cancer line were cultured in Minimum Essential Medium Eagle supplemented with 10% fetal calf serum (Sigma), 1% Penicillin-Streptomycin and 10 mM HEPES buffer (HyClone). Cell cultures were kept in a humidified incubator at 37 °C and 5% CO2. Cells were routinely tested for Mycoplasma contamination.
For target engagement assessment of Myt1 kinase inhibition, quantification of Cdk1 phosphorylated on threonine 14 was detected using the AlphaLISA® SureFire® Ultra™ Human Phospho-CDK1 (Thr14) assay (Perkin Elmer). DAOY or ACHN cells were seeded into tissue culture treated 96-well plates (VWR) to a density of 10,000 or 20,000 cells per well respectively. 24 h post seeding cells were treated for 4 h with compounds at concentrations ranging from 7 to 5000 nM. Cells were washed with PBS and lysed in 50 μl AlphaLISA lysis buffer before freezing at −80 C. Ten ul of the lysate was transferred to 384 well plates and incubated with AlphaLISA donor and acceptor beads according to the manufacturer's instructions. Dose response curves and EC50 values were calculated and visualized using GraphPad Prism version 9. Target engagement for Myt1 kinase can also be measured using the same AlphaLISA assay in OVCAR3 cells, an ovarian cancer cell line. NIH:OVCAR-3 (OVCAR3) cells are cultured in RPMI-1640 medium supplemented with 0.01 mg/ml insulin, 20% FBS, 1% Penicillin-Streptomycin and 10 mM HEPES buffer. 14,000 cells per well are seeded into 96 well tissue culture plates in full medium. Twenty-four hours post seeding, cells are treated with compound for 4 hours at concentrations ranging from 0.017 nM to 1000 nM.

[4] = target: T4, recombinant human Wee1A kinase (Homo sapiens, UniProt P30291); assay: Wee1A kinase binding assay (LanthaScreen Eu time-resolved FRET); details: 30 nM tracer 178, 5 nM Wee1A kinase, 2 nM Eu-labeled antibody; 60 minutes at room temperature; read-out: Wee1A kinase Binding IC50
T4 construct: full length Wee1 kinase was expressed by baculovirus in insect cells; purchased Invitrogen PV3817; host or cells: insect cells (baculovirus)
T4 sequence (P30291 whole entry): as above
Procedure, shortened: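 Full-length, baculovirus-expressed GST-tagged Wee1A (5 nM) was mixed with 2 nM Eu-anti-GST antibody, 30 nM kinase tracer 178 and compound (1% DMSO). Buffer was 50 mM HEPES pH 7.5, 10 mM MgCl2, 1 mM EGTA, 0.01% Brij-35, incubated 60 min at room temperature. TR-FRET 665/615 nm emission ratios from duplicates were curve-fitted.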

C=CCn1c(=O)c2cnc(Nc3ccc4nn(CC)cc4c3)nc2n1-c1cccc(OC2CCN(C)CC2)n1 [Compound 282, 2-allyl-6-((2-ethyl-2H-indazol-5-yl)amino)-1-(6-((1-methylpiperidin-4-yl)oxy)pyridin-2-yl)-1,2-dihydro-3H-pyrazolo[3,4-d]pyrimidin-3-one]
IC50 [1]: < 20 nM | EC50 [2]: < 100 nM | EC50 (ACHN cells): ≤ 100 nM | EC50 [3]: < 200 nM | IC50 [4]: < 10 nM

C=CCn1c(=O)c2cnc(Nc3ccc4c(cnn4C)c3)nc2n1-c1cccc(OC2CCN(CCC)CC2)n1 [Compound 322, 2-allyl-6-(1-methyl-1H-indazol-5-ylamino)-1-[6-(1-propyl-4-piperidyloxy)-2-pyridyl]-1,2-dihydro-3H-1,2,5,7-tetraazainden-3-one]
IC50 [1]: 20 to 100 nM | EC50 [2]: < 100 nM | EC50 (ACHN cells): ≤ 100 nM | EC50 [3]: 200 to 500 nM | IC50 [4]: < 10 nM

[2H]C([2H])([2H])c1cccc(Nc2ncc3c(=O)n(CC=C)n(-c4cccc(OC5CCN(C)CC5)n4)c3n2)c1 [Compound 333, 2-allyl-6-((3-(methyl-d3)phenyl)amino)-1-(6-((1-methylpiperidin-4-yl)oxy)pyridin-2-yl)-1,2-dihydro-3H-pyrazolo[3,4-d]pyrimidin-3-one]
IC50 [1]: 20 to 100 nM | EC50 [2]: < 100 nM | EC50 (ACHN cells): ≤ 100 nM | EC50 [3]: 200 to 500 nM | IC50 [4]: < 10 nM

C=CCn1c(=O)c2cnc(Nc3ccc4c(c3)c(C)nn4C)nc2n1-c1cccc(OC2CCN(C)CC2)n1 [Compound 346, 2-allyl-6-((1,3-dimethyl-1H-indazol-5-yl)amino)-1-(6-((1-methylpiperidin-4-yl)oxy)pyridin-2-yl)-1,2-dihydro-3H-pyrazolo[3,4-d]pyrimidin-3-one]
IC50 [1]: 20 to 100 nM | EC50 [2]: < 100 nM | EC50 (ACHN cells): ≤ 100 nM | EC50 [3]: 200 to 500 nM | IC50 [4]: < 10 nM

CN1CCC(Oc2cccc(-n3c4nc(Nc5ccc6c(ccn6C)c5)ncc4c(=O)n3C)n2)CC1 [Compound 360, 2-methyl-6-((1-methyl-1H-indol-5-yl)amino)-1-(6-((1-methylpiperidin-4-yl)oxy)pyridin-2-yl)-1,2-dihydro-3H-pyrazolo[3,4-d]pyrimidin-3-one]
IC50 [1]: 20 to 100 nM | EC50 [2]: < 100 nM | EC50 (ACHN cells): ≤ 100 nM | EC50 [3]: 500 to 1000 nM | IC50 [4]: < 10 nM

C=CCn1c(=O)c2cnc(Nc3ccc4c(ccn4C(C)=O)c3)nc2n1-c1cccc(OC2CCNCC2)n1 [Compound 384]
IC50 [1]: 20 to 100 nM | EC50 [2]: < 100 nM | EC50 (ACHN cells): ≤ 100 nM | EC50 [3]: > 1000 nM | IC50 [4]: < 10 nM

C=CCn1c(=O)c2cnc(Nc3ccc4c(cnn4CCC)c3)nc2n1-c1cccc(OC2CCN(C)CC2)n1 [Compound 385, 2-allyl-1-[6-(1-methyl-4-piperidyloxy)-2-pyridyl]-6-(1-propyl-1H-indazol-5-ylamino)-1,2-dihydro-3H-1,2,5,7-tetraazainden-3-one]
IC50 [1]: < 20 nM | EC50 [2]: < 100 nM | EC50 (ACHN cells): ≤ 100 nM | EC50 [3]: < 200 nM | IC50 [4]: < 10 nM

C=CCn1c(=O)c2cnc(Nc3ccc4c(cnn4C4CC4)c3)nc2n1-c1cccc(OC2CCN(C)CC2)n1 [Compound 386, 2-allyl-6-((1-cyclopropyl-1H-indazol-5-yl)amino)-1-(6-((1-methylpiperidin-4-yl)oxy)pyridin-2-yl)-1,2-dihydro-3H-pyrazolo[3,4-d]pyrimidin-3-one]
IC50 [1]: < 20 nM | EC50 [2]: < 100 nM | EC50 (ACHN cells): ≤ 100 nM | EC50 [3]: < 200 nM | IC50 [4]: < 10 nM

C=CCn1c(=O)c2cnc(Nc3ccc4c(cnn4CCCF)c3)nc2n1-c1cccc(OC2CCN(C)CC2)n1 [Compound 387, 2-allyl-6-((1-(3-fluoropropyl)-1H-indazol-5-yl)amino)-1-(6-((1-methylpiperidin-4-yl)oxy)pyridin-2-yl)-1,2-dihydro-3H-pyrazolo[3,4-d]pyrimidin-3-one]
IC50 [1]: 20 to 100 nM | EC50 [2]: < 100 nM | EC50 (ACHN cells): ≤ 100 nM | EC50 [3]: < 200 nM | IC50 [4]: < 10 nM
